According to patent US5378689A, “Peptides having renin inhibitory activity, their preparation and use” (Sankyo Company, Limited, priority 1989, dated 1995):

Molecular target: T1, human renin (Homo sapiens, UniProt P00797)
T1 sequence (P00797 67-406): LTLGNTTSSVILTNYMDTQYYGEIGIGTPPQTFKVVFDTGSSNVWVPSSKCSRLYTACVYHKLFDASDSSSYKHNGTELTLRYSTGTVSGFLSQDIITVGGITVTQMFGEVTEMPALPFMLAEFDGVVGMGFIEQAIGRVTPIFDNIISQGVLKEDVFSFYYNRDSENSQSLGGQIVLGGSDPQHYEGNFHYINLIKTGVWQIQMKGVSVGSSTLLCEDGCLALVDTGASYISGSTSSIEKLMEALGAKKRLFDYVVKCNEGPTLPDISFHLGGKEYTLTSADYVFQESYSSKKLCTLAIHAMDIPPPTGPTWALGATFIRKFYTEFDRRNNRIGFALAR
Assay: Inhibition of renin activity (human renin, sheep angiotensinogen, remaining angiotensin I assayed)
Format: biochemical
Settings: 1×10^-7 M test compound, pH 7.3, 37° C., 10 minutes, mean of 3 or 4 experiments; for inhibition at 0.1 µM: read-out: Inhibitory activity (%) Against Human Renin (1 × 10^-7 M)
Method: The ability of various compounds of the invention to inhibit the activity of renin was determined according to the following method, which follows essentially the procedure of Kokubu et al. [Hypertension, 5, 191-197 (1983)].
Specifically, each test compound was dissolved in 60% v/v aqueous ethanol. Human renin activity in the presence and absence of each compound was measured using sheep angiotensinogen. The total volume of 1 ml of assay mixture contained 0.1 mole/liter phosphate buffer (pH 7.3), human renin (equivalent to 0.5 ng angiotensin I per ml per minute), sheep angiotensinogen (equivalent to 200 ng angiotensin I), 1×10^-7 M of the test compound, 6% v/v ethanol and angiotensinase inhibitors (10 mmole/liter sodium ethylenediaminetetraacetate and 3.4 mmole/liter 8-hydroxyquinoline). The mixture was allowed to react for 10 minutes at 37° C., and then the reaction was stopped by placing the reaction tube in a boiling water bath for 5 minutes. The mixture was then centrifuged and the supernatant (0.05-0.1 ml) was used to assay remaining angiotensin I.
An identical experiment was carried out, as a control, except that the test compound was omitted. From the values obtained were calculated the % inhibition of renin activity achieved by each test compound. The results are shown in the following Table 2, in which the compounds of the invention are identified by the numbers of the Examples given hereafter in which are described their preparation. The values given are the mean of 3 or 4 experiments.

| Structure (SMILES) | inhibition at 0.1 µM [%] | Inhibitory activity (%) Against Human Renin (1 × 10^-7 M) [%] |
| --- | --- | --- |
| CNC(=O)[C@@H](C[C@H](O)[C@H](CC1CCCCC1)NC(=O)[C@H](Cc1cscn1)NC(=O)[C@@H](CC(=O)N1CCOCC1)Cc1ccccc1)C(C)C [Example 1, (2S, 4S, 5S)-5-{N-[2(R)-Benzyl-3-(morpholinocarbonyl)-propionyl]-3-(4-thiazolyl)-L-alanyl}amino-6-cyclohexyl-4-hydroxy-2-isopropyl-N-methylhexanamide] | 95.2 |  |
| CCCCNC(=O)[C@@H](C[C@H](O)[C@H](CC1CCCCC1)NC(=O)[C@H](Cc1cscn1)NC(=O)[C@@H](CC(=O)N1CCOCC1)Cc1ccccc1)C(C)C [Example 2, (2S, 4S, 5S)-5-{N-[2(R)-Benzyl-3-(morpholinocarbonyl)-propionyl]-3-(4-thiazolyl)-L-alanyl}amino-N-butyl-6-cyclohexyl-4-hydroxy-2-isopropylhexanamide] | 96 |  |
| CNC(=O)[C@@H](C[C@H](O)[C@H](CC1CCCCC1)NC(=O)[C@H](Cc1cscn1)NC(=O)[C@@H](CC(=O)N1CCOCC1)Cc1ccc(OC)cc1)C(C)C [Example 3, (2S, 4S, 5S)-5-{N-[2(R)-(4-Methoxybenzyl)-3-(morpholinocarbonyl)propionyl]-3-(4-thiazolyl)-L-alanyl}amino-6-cyclohexyl-4-hydroxy-2-isopropyl-N-methylhexanamid] | 93.1 |  |
| CCCCNC(=O)[C@@H](C[C@H](O)[C@H](CC1CCCCC1)NC(=O)[C@H](Cc1cscn1)NC(=O)[C@@H](CC(=O)N1CCOCC1)Cc1ccc(OC)cc1)C(C)C [Example 4] |  | 96.9 |
| CNC(=O)[C@H](C)C[C@H](O)[C@H](CC1CCCCC1)NC(=O)[C@H](Cc1cscn1)NC(=O)[C@@H](CC(=O)N1CCOCC1)Cc1ccccc1 [Example 5, (2R, 4S, 5S)-5-{N-[2(R)-Benzyl-3-(morpholinocarbonyl)-propionyl]-3-(4-thiazolyl)-L-alanyl}amino-6-cyclohexyl-4-hydroxy-2,N-dimethylhexanamide] | 95.6 |  |
| CCCCNC(=O)[C@H](C)C[C@H](O)[C@H](CC1CCCCC1)NC(=O)[C@H](Cc1cscn1)NC(=O)[C@@H](CC(=O)N1CCOCC1)Cc1ccccc1 [Example 6] |  | 96.1 |
| CCCCNC(=O)[C@H](C)C[C@H](O)[C@H](CC1CCCCC1)NC(=O)[C@H](Cc1cscn1)NC(=O)[C@@H](CC(=O)N(C)Cc1ccccc1)Cc1ccccc1 [Example 8, (2R, 4S, 5S)-5-{N-[2(R)-Benzyl-3-(N-benzyl-N-methylaminocarbonyl)propionyl]-3-(4-thiazolyl)-L-alanyl}-amino-N-butyl-6-cyclohexyl-4-hydroxy-2-methylhexanamide] |  | 96.2 |
| CCCCNC(=O)[C@H](C)C[C@H](O)[C@H](CC1CCCCC1)NC(=O)[C@H](Cc1cscn1)NC(=O)[C@@H](CC(=O)N(C)Cc1ccccc1)Cc1ccc(OC)cc1 [Example 11, (2R, 4S, 5S)-N-Butyl-6-cyclohexyl-4-hydroxy-5-{N-[2(R)-(4-methoxybenzyl)-3-(N-benzyl-N-methylaminocarbonyl)-propionyl]-3-(4-thiazolyl)-L-alanyl}amino-2-methylhexanamide] | 91.6 |  |
| CNC(=O)[C@H](C)C[C@H](O)[C@H](CC1CCCCC1)NC(=O)[C@H](Cc1cscn1)NC(=O)[C@@H](CC(=O)N(C)Cc1ccccc1)Cc1ccccc1 [Example 14, (2R, 4S, 5S )-5-{N-[2(R)-Benzyl-3-(N-benzyl-N-methylaminocarbonyl)propionyl]-3-(4-thiazolyl)-L-alanyl}-amino-6-cyclohexyl-4-hydroxy-2,N-dimethylhexanamide] |  | 95.7 |
| CCCCNC(=O)[C@@H](C[C@H](O)[C@H](CC1CCCCC1)NC(=O)[C@H](Cc1cscn1)NC(=O)[C@@H](CC(=O)N(C)Cc1ccccc1)Cc1ccccc1)C(C)C [Example 16, (2S, 4S, 5S)-5-{N-[2(R)-Benzyl-3-(N-benzyl-N-methylaminocarbonyl)propionyl]-3-(4-thiazolyl)-L-alanyl}amino-N-butyl-6-cyclohexyl-4-hydroxy-2-isopropylhexanamide] | 94.8 |  |
